# “Also recorded” adds a separate entry of the source. In the oligonucleotide strings, read from the 5' end, every base follows the letter of its sugar. An asterisk marks phosphorothioate; unmarked linkages are phosphodiester. Other units and linkages are bracketed, terminal groups are in braces. A string of capitals states the bases alone. e = 2'-O-(2-methoxyethyl) (MOE); [5mC] = 5-methylcytosine; d = 2'-deoxy (DNA)
# Columns and labels:
# [1] = Tolerability in CD1 mice: organ weight (Example 17); format: in vivo; conditions: 50 mg/kg s.c. twice a week, 2 weeks, vs PBS control, normalized to body weight
# Procedure: Three days after the last dose was administered to all groups, the mice were sacrificed.
# [2] = tested on: IL-1β, IL-6, IFN-γ, TNF-α, IL-8, MIP-1α, MCP-1, MIP-10, RANTES; assay: Cynomolgus monkeys: cytokine and chemokine assays (Example 30); format: in vivo
# In short: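 Sampling at day −14 and at necropsy on day 55 gave blood for cytokine and chemokine levels, read with primate antibodies for IL-1β, IL-6, IFN-γ and TNF-α and human cross-reacting antibodies for the rest. Dosing: subcutaneous 25 mg/kg, 3×/week week 1, 2×/week weeks 2–8; PBS control; 2 males + 2 females per group.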
# [3] = tested on: collagen-induced arthritis (CIA) model; assay: Arthritis Study A: collagen-induced arthritis (Example 11); format: in vivo, DBA/1J mice; conditions: for incidence of CIA (in words): 20 mg/kg
# Procedure: The effect of inhibition of Factor XI and its role in fibrin accumulation in the joints leading to joint inflammation and rheumatoid arthritis was evaluated in a murine collagen-induced arthritis (CIA) model. […] Arthritis induced in mice administered collagen can be visually assessed and clinically scored as described by Marty et al. (J Clin Invest, 107:631-640, 2001) where 1 point is given for each swollen digit except the thumb (maximum, 4), 1 point is given for the tarsal or carpal joint, and 1 point is given for the metatarsal or metacarpal joint with a maximum score of […]. Each paw was graded individually, the cumulative clinical arthritic score per mouse reaching a maximum of 22 points
# In a group of 15 DBA/1J mice, 20 mg/kg of ISIS 404071 was injected subcutaneously twice a week for 12 weeks. One control group of 15 mice was injected with 20 mg/kg of ISIS 403102 twice a week for 12 weeks. Two control groups of 15 mice each were injected with PBS twice a week for 12 weeks. Two weeks after the first oligonucleotide dose, type II bovine collagen (Chondrex Inc, Redmond, Wash.) was mixed with complete Freund's adjuvant, homogenized on ice and the emulsion, containing 100 μg of collagen, was injected subcutaneously at the base of the tail in the Factor XI group, the Factor VII group and one of the PBS control groups. A booster injection containing 100 μg collagen type II in incomplete Freund's adjuvant was injected subcutaneously at the base of the tail at a different injection site on day 21 after the first collagen injection in these groups.
# Starting 35 days from the first collagen injection, mice in all groups were examined daily for the visual appearance of arthritis, such as swelling and stiffness, in peripheral joints. The results are presented in Table 20 (expressed as a percentage of the PBS control) and in FIGS. 1-3.
# ‘Incidence of CIA’ refers to the percentage of mice in each group that had CIA at day 40. The ‘percentage of paws affected’ refers to the percentage of paws out of a total of 60 paws in each group of mice that were affected with arthritis. ‘Average number of affected paws’ refers to the number of affected paws in mice that were diagnosed to have arthritis. The ‘clinical severity of CIA’ was scored as described by Marty et al. (J Clin Invest, 107:631-640, 2001) and as follows: 1 point for each swollen digit except the thumb (maximum, 4), 1 point for the tarsal or carpal joint, and 1 point for the metatarsal or metacarpal joint with a maximum score of 6 for a hindpaw and 5 for a forepaw. Each paw was graded individually, the cumulative clinical arthritic score per mouse reaching a maximum of 22 points.
# murine Factor XI mRNA = assay: Colitis Study B: Factor XI mRNA in the liver; format: in vivo, Swiss Webb mice; conditions: DSS-induced colitis, day 7, 20 mg/kg s.c. twice a week for 3 weeks, percent change compared to the PBS control
# Procedure: In a first group of 8 Swiss Webb mice, 20 mg/kg of ISIS 404071 was injected subcutaneously twice a week for 3 weeks. In a second group of 8 Swiss Webb mice, 20 mg/kg of ISIS 404057 was subcutaneously injected twice a week for 3 weeks. In a third control group of 8 Swiss Webb mice, 20 mg/kg of ISISI 421208 was injected subcutaneously twice a week for 3 weeks. Two control groups of 8 mice each were injected with PBS twice a week for 3 weeks. After the oligonucleotide treatment, 4% DSS in water was administered ad libitum for 6 days to all the experimental groups and one PBS control group.
# Mice in all groups were weighed at day 0 and daily after administration of DSS. Mice were sacrificed at the end of the study on day 7 after DSS was administered, their livers and colons were harvested for RNA analysis, and their body weights and colon lengths were measured.
# RT-PCR analysis of Factor XI mRNA was performed. As presented in Table 27 and FIG. 10, antisense oligonucleotides targeting Factor XI achieved statistically significant dose-dependent reduction of murine Factor XI over the PBS control in the liver. All the measurements are normalized to cyclophilin.
# All the results in Table 27 are expressed as percent change compared to the PBS control.
# Factor XI mRNA = assay: Colitis Study F: Factor XI mRNA in liver and colon; format: in vivo, Swiss Webb mice; conditions: DSS-treated mice, 50 mg/kg, percent of the PBS treated control
# Procedure: In a first group of 8 Swiss Webb mice, 50 mg/kg of ISIS 404071 was injected subcutaneously twice a week for 3 weeks. Two control groups of 8 mice each were injected with PBS twice a week for 3 weeks. After the oligonucleotide treatment, 4% DSS in water was administered ad libitum for 7 days to the experimental group and one PBS control group. Mice were sacrificed at the end of the study on day 7 after DSS was administered.
# The effect of antisense inhibition in the liver and colon levels of Factor XI mRNA after treatment by ISIS 404071 is presented in Table 48 (as a percent of the PBS treated control).
# [4] = day −14 (before start of treatment)
substance,measurement,setting,value
"416850 (antisense TGCACAGTTTCTGGCAGGCC; 5-10-5 gapmer, wing sugar chemistry not given here, further chemistry not given here) [compound 416850]",Percent change in kidney weight,[1],−10%
ISIS 416850: gapmer of Table 8 (antisense eT*eG*e[5mC]*eA*e[5mC]*dA*dG*dT*dT*dT*d[5mC]*dT*dG*dG*d[5mC]*eA*eG*eG*e[5mC]*e[5mC]),IL-1β level,"[2]; 25 mg/kg s.c., day 55",106 pg/mL
same,MIP-1β level,"[2]; 25 mg/kg s.c., day 55",50 pg/mL
same,IL-1β level,[2]; [4],215 pg/mL
same,MIP-1β level,[2]; [4],31 pg/mL
"TGGTAATCCACTTTCAGAGG (eT*eG*eG*eT*eA*dA*dT*d[5mC]*d[5mC]*dA*d[5mC]*dT*dT*dT*d[5mC]*eA*eG*eA*eG*eG) [ISIS 404071, 5-10-5 MOE gapmer targeting murine Factor XI, target start site 869]",incidence of CIA (in words),[3]; Arthritis Study A,significantly inhibit the incidence of CIA
same,incidence of CIA (in words),"[3]; Arthritis Study A, listed as Factor XI ASO",lower incidence of CIA
same,affected paws (in words),"[3]; Arthritis Study A, FIG. 1B and 2A, listed as Factor XI ASO",lower incidence of affected paws; also recorded: fewer affected paws on average
same,arthritis severity (in words),"[3]; Arthritis Study A, FIG. 2B",less severe arthritis than the control mice
same,timeline of CIA incidence (in words),"[3]; Arthritis Study A, FIG. 3",developed CIA at a later stage with fewer affected mice
same,Average no. of paws affected,"[3]; DBA/1J mice, 20 mg/kg s.c. twice a week for 12 weeks, in mice diagnosed with arthritis",1
same,% of paws affected,"[3]; DBA/1J mice, 20 mg/kg s.c. twice a week for 12 weeks, out of 60 paws per group",3%
same,% of CIA,"[3]; DBA/1J mice, 20 mg/kg s.c. twice a week for 12 weeks, percentage of mice in group with CIA at day 40",13%
same,Clinical severity of CIA,"[3]; DBA/1J mice, 20 mg/kg s.c. twice a week for 12 weeks, score of Marty et al., maximum 22 points",1
same,Liver Factor XI mRNA,murine Factor XI mRNA,−75%
same,Factor XI mRNA levels in the Colon,Factor XI mRNA,148 % of normal
same,Factor XI mRNA levels in the Liver,Factor XI mRNA,24 % of normal

# From patent US20120083522A1, “MODULATION OF INFLAMMATORY RESPONSES BY FACTOR XI” (Isis Pharmaceuitcals, inc., priority 2009, published 2012)
